From the NIST ThermoML archive (doi:10.1021/acs.jced.7b00740)
± gives the expanded uncertainty stated by the source.

Tests used:
[1] = Liquid; for mass density: 293.15 K, 101.33 kPa, Pycnometric method; for vapor or sublimation pressure: Ebulliometric method (Recirculating still)
[2] = refractive index (Na D-line) (dimensionless); conditions: 298.15 K; 101.33 kPa; Liquid; Standard Abbe refractometry

| Compound | mass density [1] [kg/m3] | vapor or sublimation pressure ([1]; 386.53 K) [kPa] | refractive index [2] | vapor or sublimation pressure ([1]; 366.13 K) [kPa] | vapor or sublimation pressure ([1]; 378 K) [kPa] | vapor or sublimation pressure ([1]; 390.92 K) [kPa] | vapor or sublimation pressure ([1]; 351.51 K) [kPa] | vapor or sublimation pressure ([1]; 370.42 K) [kPa] |
| --- | --- | --- | --- | --- | --- | --- | --- | --- |
| CCCOCOCC [1-(ethoxymethoxy)propane] | 831.1 ± 0.7 | 101.33 ± 1 | 1.3818 ± 0.0005 |  |  |  |  |  |
| CCCOCOC [1-(methoxymethoxy)propane] | 841.2 ± 0.7 |  | 1.3757 ± 0.0005 | 101.33 ± 1 |  |  |  |  |
| COCOCOC [2,4,6-trioxaheptane] | 958 ± 0.8 |  | 1.379 ± 0.0005 |  | 101.33 ± 1 |  |  |  |
| CCCCO [butan-1-ol] | 809.5 ± 0.7 |  | 1.3971 ± 0.0005 |  |  | 101.33 ± 1 |  |  |
| CCO [ethanol] | 789.2 ± 0.7 |  | 1.3595 ± 0.0005 |  |  |  | 101.33 ± 1 |  |
| CCCO [propan-1-ol] | 803.6 ± 0.7 |  | 1.3835 ± 0.0005 |  |  |  |  | 101.33 ± 1 |
